Laboratory results reported in PubChem BioAssay AID328 (DTP/NCI, 2004).
Where “and” joins values, the source holds several entries; their conditions need not be identical. Equal values may be shown once. Toxic doses and inconclusive results are not listed.

Test system: BDF1 mice, P388 leukemia ip, median survival T/C
Assay: NCI In Vivo Anticancer Drug Screen. Data for tumor model P388 Leukemia (intraperitoneal) in B6D2F1 (BDF1) mice
Settings: endpoint: median survival time, higher = longer survival
Protocol: The antitumor activity of compounds was measured in mice bearing transplantable tumors. Survival or tumor size were measured and the results are expressed as the measurement made in the treated group (T) divided by the measurement made in the vehicle treated control group (C). The tumor model used in this assay is P388 Leukemia (intraperitoneal) in B6D2F1 (BDF1) mice

[1] = dose: 400.0 mg/kg/injection, schedule: Q01DX009 (ip), vehicle: water
[2] = dose: 100.0 mg/kg/injection, schedule: Q04DX003 (ip), vehicle: saline with Tween-80
[3] = dose: 200.0 mg/kg/injection, schedule: Q04DX003 (ip), vehicle: saline with Tween-80
[4] = dose: 400.0 mg/kg/injection, schedule: Q04DX003 (ip), vehicle: saline with Tween-80
[5] = dose: 25.0 mg/kg/injection, schedule: Q01DX009 (ip), vehicle: saline with Tween-80
[6] = dose: 50.0 mg/kg/injection, schedule: Q01DX009 (ip), vehicle: saline with Tween-80
[7] = dose: 66.0 mg/kg/injection, schedule: Q01DX009 (ip), vehicle: saline with Tween-80
[8] = dose: 100.0 mg/kg/injection, schedule: Q01DX009 (ip), vehicle: saline with Tween-80
[9] = dose: 150.0 mg/kg/injection, schedule: Q01DX009 (ip), vehicle: saline with Tween-80
[10] = dose: 100.0 mg/kg/injection, schedule: Q04DX003 (ip), vehicle: saline
[11] = dose: 200.0 mg/kg/injection, schedule: Q04DX003 (ip), vehicle: saline
[12] = dose: 400.0 mg/kg/injection, schedule: Q04DX003 (ip), vehicle: saline
[13] = dose: 200.0 mg/kg/injection, schedule: Q01DX009 (ip), vehicle: saline with Tween-80
[14] = dose: 400.0 mg/kg/injection, schedule: Q01DX009 (ip), vehicle: saline with Tween-80
[15] = dose: 200.0 mg/kg/injection, schedule: Q01DX009 (ip), vehicle: Klucel (hydroxypropylcellulose) (HPC)
[16] = dose: 400.0 mg/kg/injection, schedule: Q01DX009 (ip), vehicle: Klucel (hydroxypropylcellulose) (HPC)
[17] = dose: 25.0 mg/kg/injection, schedule: Q01DX009 (ip), vehicle: saline
[18] = dose: 100.0 mg/kg/injection, schedule: Q01DX009 (ip), vehicle: Klucel (hydroxypropylcellulose) (HPC)
[19] = dose: 100.0 mg/kg/injection, schedule: Q01DX009 (ip), vehicle: saline
[20] = dose: 200.0 mg/kg/injection, schedule: Q01DX009 (ip), vehicle: saline
[21] = dose: 400.0 mg/kg/injection, schedule: Q01DX009 (ip), vehicle: saline
[22] = dose: 100.0 mg/kg/injection, schedule: Q04DX003 (ip), vehicle: Klucel (hydroxypropylcellulose) (HPC)
[23] = dose: 200.0 mg/kg/injection, schedule: Q04DX003 (ip), vehicle: Klucel (hydroxypropylcellulose) (HPC)
[24] = dose: 400.0 mg/kg/injection, schedule: Q04DX003 (ip), vehicle: Klucel (hydroxypropylcellulose) (HPC)

COc1ccc(CN2CC(C)NC(C)C2)cc1 (stereo not given)
T/C (dose: 3.12 mg/kg/injection, schedule: Q01DX009 (ip), vehicle: water): 108 % of control
T/C (dose: 6.25 mg/kg/injection, schedule: Q01DX009 (ip), vehicle: water): 103 % of control
T/C (dose: 12.5 mg/kg/injection, schedule: Q01DX009 (ip), vehicle: water): 95 % of control
T/C (dose: 25.0 mg/kg/injection, schedule: Q01DX009 (ip), vehicle: water): 91 % of control
T/C (dose: 50.0 mg/kg/injection, schedule: Q01DX009 (ip), vehicle: water): 117 % of control
T/C (dose: 100.0 mg/kg/injection, schedule: Q01DX009 (ip), vehicle: water): 100 % of control
T/C (dose: 100.0 mg/kg/injection, schedule: Q04DX003 (ip), vehicle: water): 99 % of control
T/C (dose: 200.0 mg/kg/injection, schedule: Q01DX009 (ip), vehicle: water): 98 % of control
T/C (dose: 300.0 mg/kg/injection, schedule: Q01DX009 (ip), vehicle: water): 117 % of control
T/C [1]: 97 % of control

CCCCCCCCOc1cc2c(c(OC(C)=O)c1)-c1ccccc1CC2
T/C [2]: 97 % of control
T/C [3]: 99 % of control
T/C [4]: 99 % of control

CC(C)=CCC1=C(O)c2ccccc2C(=O)C1=O
T/C (dose: 25.0 mg/kg/injection, schedule: Q#A X018 (oral), vehicle: other): 100 % of control
T/C (dose: 50.0 mg/kg/injection, schedule: Q01DX010 (ip), vehicle: other): 104 % of control
T/C (dose: 50.0 mg/kg/injection, schedule: Q01DX010 (ip), vehicle: water): 118 % of control
T/C (dose: 50.0 mg/kg/injection, schedule: Q#A X018 (oral), vehicle: other): 100 % of control
T/C (dose: 50.0 mg/kg/injection, schedule: Q#A X020 (ip), vehicle: other): 100 % of control
T/C (dose: 75.0 mg/kg/injection, schedule: Q01DX010 (ip), vehicle: water): 100 % of control and 109 % of control
T/C (dose: 100.0 mg/kg/injection, schedule: Q01DX010 (ip), vehicle: other): 118 % of control
T/C (dose: 100.0 mg/kg/injection, schedule: Q#A X018 (oral), vehicle: other): 100 % of control
T/C (dose: 100.0 mg/kg/injection, schedule: Q#A X020 (ip), vehicle: other): 90 % of control
T/C (dose: 125.0 mg/kg/injection, schedule: Q01DX010 (ip), vehicle: water): 95 % of control
T/C (dose: 150.0 mg/kg/injection, schedule: Q01DX010 (ip), vehicle: water): 90 % of control and 104 % of control
T/C (dose: 150.0 mg/kg/injection, schedule: Q#A X018 (ip), vehicle: other): 100 % of control
T/C (dose: 150.0 mg/kg/injection, schedule: Q#A X020 (ip), vehicle: other): 120 % of control

CCOc1nc(N)c(C(N)=O)cc1C#N
T/C [5]: 105 % of control
T/C [6]: 110 % of control
T/C [7]: 92 % of control and 110 % of control
T/C [8]: 150 % of control
T/C [9]: 88 % of control and 95 % of control

C[N+](C)(C)CCC[N+](C)(C)C
T/C [10]: 100 % of control
T/C (dose: 200.0 mg/kg/injection, schedule: Q01DX006 (ip), vehicle: saline): 114 % of control
T/C [11]: 104 % of control
T/C (dose: 300.0 mg/kg/injection, schedule: Q01DX006 (ip), vehicle: saline): 151 % of control
T/C (dose: 400.0 mg/kg/injection, schedule: Q01DX006 (ip), vehicle: saline): 94 % of control
T/C [12]: 93 % of control

C[C@]12CCC(=O)C=C1CC[C@@H]1[C@@H]2[C@@H](O)C[C@@]2(C)[C@H]1CC[C@]2(O)C(=O)COC(=O)COCC(=O)O
T/C [8]: 109 % of control
T/C [13]: 109 % of control
T/C [14]: 109 % of control

O=[N+]([O-])c1cc(S(=O)(=O)NCc2ccco2)ccc1N/N=C/c1ccccn1
T/C (dose: 0.78 mg/kg/injection, schedule: Q01DX009 (ip), vehicle: saline with Tween-80): 99 % of control
T/C (dose: 1.56 mg/kg/injection, schedule: Q01DX009 (ip), vehicle: saline with Tween-80): 99 % of control
T/C (dose: 3.12 mg/kg/injection, schedule: Q01DX009 (ip), vehicle: saline with Tween-80): 95 % of control

[N-]=[N+]=CC(=O)NCC(=O)NO
T/C (dose: 180.0 mg/kg/injection, schedule: Q01DX009 (ip), vehicle: water): 172 % of control
T/C (dose: 270.0 mg/kg/injection, schedule: Q01DX009 (ip), vehicle: water): 172 % of control
T/C [1]: 204 % of control

N#Cc1c(N)sc(N)c1C#N
T/C [15]: 115 % of control
T/C [16]: 110 % of control

Cn1cnc([N+](=O)[O-])c1[Se]c1ncnc2c1ccn2C1OC(CO)C(O)C1O (stereo not given)
T/C (dose: 6.25 mg/kg/injection, schedule: Q01DX009 (ip), vehicle: saline): 107 % of control
T/C (dose: 12.5 mg/kg/injection, schedule: Q01DX009 (ip), vehicle: saline): 88 % of control
T/C [17]: 102 % of control
T/C [10]: 100 % of control
T/C [11]: 104 % of control

O=[N+]([O-])c1ccc2[nH]c3c(c2c1)CSCC3
T/C [6]: 100 % of control
T/C [18]: 100 % of control
T/C [8]: 96 % of control
T/C [2]: 109 % of control
T/C [15]: 90 % of control
T/C [3]: 107 % of control
T/C [16]: 86 % of control
T/C [14]: 91 % of control
T/C [4]: 110 % of control

ClCCN(CCCl)c1ccc2c3c(cccc13)-c1ccccc1-2
T/C [7]: 151 % of control
T/C [8]: 177 % of control
T/C (dose: 132.0 mg/kg/injection, schedule: Q04DX003 (ip), vehicle: saline with Tween-80): 160 % of control
T/C [9]: 214 % of control
T/C [3]: 182 % of control
T/C (dose: 300.0 mg/kg/injection, schedule: Q04DX003 (ip), vehicle: saline with Tween-80): 226 % of control

CC1C=CC(=O)O1 (stereo not given)
T/C (dose: 50.0 mg/kg/injection, schedule: Q01DX009 (ip), vehicle: saline): 105 % of control
T/C [19]: 105 % of control
T/C [20]: 112 % of control
T/C [21]: 112 % of control

O=C(NC(=O)c1c(F)cccc1F)Nc1ccc(Cl)c(Cl)c1
T/C [5]: 96 % of control
T/C [6]: 97 % of control
T/C [8]: 100 % of control

O/N=c1/cc(-c2ccc(Cl)cc2)ss1
T/C [17]: 114 % of control
T/C (dose: 50.0 mg/kg/injection, schedule: Q04DX003 (ip), vehicle: saline): 100 % of control and 113 % of control
T/C [19]: 106 % of control
T/C [10]: 93 % of control and 106 % of control and 110 % of control
T/C [20]: 92 % of control
T/C [11]: 96 % of control and 102 % of control
T/C [21]: 96 % of control
T/C [12]: 102 % of control
T/C (dose: 600.0 mg/kg/injection, schedule: Q04DX003 (ip), vehicle: saline): 90 % of control

CC(C)(C)NC(C1=CC(C)(C)c2ccccc2C1=O)c1ccccc1 (stereo not given)
T/C [18]: 105 % of control
T/C [22]: 100 % of control
T/C [15]: 110 % of control
T/C [23]: 95 % of control
T/C [24]: 90 % of control

c1ccc(-c2nnc3ncccn23)cc1
T/C [6]: 96 % of control
T/C [8]: 93 % of control
T/C [13]: 93 % of control

O=C(Nc1ccc(Nc2ccncc2)cc1)c1ccc(Nc2ccnc3ccc([N+](=O)[O-])cc23)cc1
T/C [18]: 90 % of control
T/C [22]: 100 % of control
T/C [15]: 90 % of control
T/C [23]: 100 % of control
T/C [16]: 95 % of control
T/C [24]: 90 % of control

Oc1c(Cl)cc(Cl)cc1C1Nc2ccccc2-n2cccc21 (stereo not given)
T/C [13]: 88 % of control

Cn1c(-c2ccccc2)nc2ccccc2c1=O
T/C [6]: 90 % of control
T/C [8]: 97 % of control
T/C [13]: 101 % of control

O=C1c2ccccc2CCCC12OC2c1ccccc1 (stereo not given)
T/C (dose: 75.0 mg/kg/injection, schedule: Q04DX003 (ip), vehicle: Klucel (hydroxypropylcellulose) (HPC)): 95 % of control
T/C (dose: 150.0 mg/kg/injection, schedule: Q04DX003 (ip), vehicle: Klucel (hydroxypropylcellulose) (HPC)): 104 % of control
T/C (dose: 300.0 mg/kg/injection, schedule: Q04DX003 (ip), vehicle: Klucel (hydroxypropylcellulose) (HPC)): 90 % of control
